In patent US8581605B2 (priority 2006, dated 2013):

Target: αHL ion channel (Staphylococcus aureus, UniProt P09616)
Assay type: biochemical
Settings: pH 7.4

Sequence of αHL ion channel (P09616 27-319 limits assumed): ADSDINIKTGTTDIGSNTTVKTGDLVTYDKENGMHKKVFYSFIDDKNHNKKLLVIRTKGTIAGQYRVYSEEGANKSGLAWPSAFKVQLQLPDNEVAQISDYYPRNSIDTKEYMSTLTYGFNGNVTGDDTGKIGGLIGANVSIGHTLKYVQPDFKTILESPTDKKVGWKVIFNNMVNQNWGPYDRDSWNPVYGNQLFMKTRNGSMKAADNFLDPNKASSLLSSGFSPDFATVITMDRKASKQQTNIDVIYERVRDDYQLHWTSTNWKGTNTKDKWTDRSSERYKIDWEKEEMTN

## hepta-6-sulfato-β-cyclodextrin [s7βCD]
  reduction of conductance through the αHL when s7βCD is bound: ~90%
